Experimental data reported in patent US20200237759A1, “DOSAGE REGIME AND METHOD FOR TREATING PULMONARY ARTERIAL HYPERTENSION” (Altavant Sciences GmbH, priority 2019, published 2020).

Tested on: plasma 5-HIAA (a PD marker of 5-HT synthesis)
Test: Part 2 MAD biomarker: plasma 5-HIAA change from Day 1
Assay type: in vivo, human
From the text: Biomarkers were to be evaluated in Part 2 by measuring concentrations of serotonin (5-hydroxytryptamine [5-HT]) in serum and 5-hydroxyindoleacetic acid (5-HIAA) in plasma and urine. As well, the relationship of biomarkers to PK parameters was to be evaluated.
The biomarker analysis was to be based on the Biomarker Population (all subjects with evaluable biomarker measurements at baseline [Day 1 predose] and at least one after dosing [Day 7 or Day 14]).
Biomarker data were to be collected only in Part 2. The following biomarkers were to be analyzed: • Serum 5-HT • Plasma 5-HIAA • Urine 5-HIAA/24 hours (as measured, adjusted, estimated, and per gram creatinine)
The a priori primary biomarker endpoint was to be the change in plasma 5-HIAA concentration on Day 14 from Day 1.
Linear regression was to be performed using biomarker changes, absolute and relative (%), from Day 1, at predose on Day 7 or Day 14 versus AUC0-24, Cmax, and Cmin in corresponding study days. The slopes and corresponding 95% confidence intervals (CIs) were to be tabulated.
Summary statistics (mean, standard deviation [SD], median, minimum [Min], and maximum [Max]) were to be tabulated for each biomarker, by Cohort, with absolute and relative (%) changes from Day 1 predose.
The values were to be tabulated with P values testing whether the difference of changes was equal to 0.
The biomarker portion of the study was conducted in Part 2 MAD using the Biomarker Population. The biomarkers evaluated were serum 5-HT and plasma 5-HIAA, as well as urine 5-HIAA/24 hours (as measured, adjusted, estimated, and per gram creatinine). Urinary 5-HIAA was determined by a validated (21 C.F.R. 58, GLP-compliant) method using liquid chromatographic separation and tandem mass spectrometry detection.
The Biomarker Population consisted of all subjects with evaluable baseline (Day 1 predose) and at least one postdose (Day 7 or Day 14) biomarker measurements.
Biomarker data were analyzed for each KAR5585 dose separately, for all KAR5585 doses pooled, and for all placebo subjects pooled. […]

Row | correlation of absolute and relative changes from baseline in plasma 5-HIAA with AUC0-24, Cmax, C12 and AUC0-12 (Day 14) | Structure (SMILES) | mean percent difference of change from Day 1 in plasma 5-HIAA between KAR5585 and placebo (Day 7, any dose group) | mean difference of changes from Day 1 to Day 14 in plasma 5-HIAA compared to placebo (each dose group and all doses combined, Day 14)
1 | significantly correlated | Nc1nc(O[C@H](c2ccc(Cl)cc2-c2ccccc2)C(F)(F)F)cc(N2CCC3(CC2)CN[C@H](C(=O)O)C3)n1 [KAR5417, (S)-8-(2-amino-6-((R)-1-(5-chloro-[1,1′-biphenyl]-2-yl)-2,2,2-trifluoroeth-oxy)pyrimidin-4-yl)-2,8-diazaspiro[4.5]decane-3-carboxylic acid] |  | 
2 |  | CCOC(=O)[C@@H]1CC2(CCN(c3cc(O[C@H](c4ccc(Cl)cc4-c4ccccc4)C(F)(F)F)nc(N)n3)CC2)CN1 [KAR5585, (S)-ethyl 8-(2-amino-6-((R)-1-(5-chloro-[1,1′-biphenyl]-2-yl)-2,2,2-trifluoroethoxy)pyrimidin-4-yl)-2,8-diazaspiro[4.5]decane-3-carboxylate] | not significant | statistically significant in favor of KAR5585
